Laboratory results taken from ChEMBL document CHEMBL1134969, “Synthesis and evaluation of water-soluble paclitaxel prodrugs” (Bioorg Med Chem Lett, 2002).

Key:
L1210 [1] = assay: Cytotoxicity expressed as concentration required to inhibit cell growth by 50% on continuous exposure time of 72 hr in L1210 cell line by MTT assay.; assay type: functional, cell-based; settings: Mus musculus, L1210, 72 h
L1210 [2] = assay: Cytotoxicity expressed as concentration required to inhibit cell growth by 50% on continuous exposure time of 96h in L1210 cell line by MTT assay.; assay type: functional, cell-based; settings: Mus musculus, L1210, 96 h
Mus musculus [3] = assay: Tumor inhibition expressed as (average tumor weight of treated group/average tumor weight of control group)*100 at a dose of (8 mg/kg); assay type: functional
Mus musculus [4] = assay: Tumor inhibition expressed as (average tumor weight of treated group/average tumor weight of control group)*100 at a dose of 10 mg/kg; assay type: functional
Mus musculus [5] = assay: Percentage change in the body weight on day 20 after intravenous administration (10 mg/kg) against B16 melanoma (implanted subcutaneously in mice).; assay type: functional
[6] = Toxicity expressed in terms of number of toxic deaths after administration (10 mg/Kg) in mice; out of 10 tested; settings: mouse, in vivo
PG-49 cell line [7] = assay: Cytotoxicity expressed as concentration required to inhibit cell growth by 50% on continuous exposure time of 96h in PG-49 cell line by MTT assay.; assay type: functional, cell-based; settings: Homo sapiens, PG-49, 96 h
PG-49 cell line [8] = assay: Cytotoxicity expressed as concentration required to inhibit cell growth by 50% on continuous exposure time of 72 hr in PG-49 cell line by MTT assay.; assay type: functional, cell-based; settings: Homo sapiens, PG-49, 72 h
Mus musculus [9] = assay: Percentage change in the body weight on day 20 after intravenous administration (8 mg/Kg) against human breast cancer xenograph Bcap-37 (grown sc in athymic mice); assay type: functional
[10] = Toxicity expressed in terms of number of toxic deaths after administration (8 mg/Kg) in athymic mice; out of 6 tested; settings: mouse, in vivo

## CC(=O)O[C@H]1C(=O)[C@@]2(C)[C@H]([C@H](OC(=O)c3ccccc3)[C@]3(O)C[C@H](OC(=O)[C@H](O)[C@@H](NC(=O)c4ccccc4)c4ccccc4)C(C)=C1C3(C)C)[C@]1(OC(C)=O)CO[C@@H]1C[C@@H]2O [PACLITAXEL]
L1210 [1]
  IC50: 580 pM
L1210 [2]
  IC50: 90 pM
Mus musculus [3]
  Tumor inhibition: 78.02%
Mus musculus [4]
  Tumor inhibition: 71.4%
Mus musculus [5]
  Body weight change: 7.8%
[6]
  Toxicity: 2
PG-49 cell line [7]
  IC50: 310 pM
PG-49 cell line [8]
  IC50: 2140 pM
Mus musculus [9]
  Body weight change: 16.9%
[10]
  Toxicity: 0
